Measurements reported in patent US20110105477A1, “COMPOSITIONS AND METHODS RELATING TO HIV PROTEASE INHIBITION” (The Regents of the University of Michigan, priority 2007, published 2011).

What follows are compounds tested against HIV-1 protease (Human immunodeficiency virus type 1 group M subtype B, UniProt P04585) (assay: HIV protease inhibition assay). Conditions: not given.
Format: biochemical
With `CC1=CC(C)(C)Nc2ccc(OC(=O)c3ccccc3Br)cc21` [Compound 3] the “activity in HIVp inhibition assay (in words)” value was “active”.

Same assay, conditions: HIVp inhibition
`COc1ccc(C(=O)Oc2ccc3c(c2)C(C)=CC(C)(C)N3)cc1` [Compound 2] was tested, and the IC50 was 18 µM.

Same assay, conditions: remaining HIV-1 protease activity at 150 μM compound
`O=C1[C@H]2CCCC[C@H]2C(=O)N1c1ccc2[nH]c(=S)sc2c1` was tested, and the “Remain Activity” value was 51.9%.
With `CC1=CC(C)(C)Nc2ccc(OC(=O)c3cccnc3)cc21` the “Remain Activity” value was 58.86%.
In the case of `CCOc1ccccc1CNc1nc2[nH]c3c(c(=O)n2n1)CCC3`, the “Remain Activity” value is reported as 75.44%.
`Cc1cc(=O)n2nc(NCc3cccs3)nc2[nH]1` was tested, and the “Remain Activity” value was 63.59%.
`CC1=CC(C)(C)Nc2ccc(OC(=O)c3cccc([N+](=O)[O-])c3)cc21` was tested, and the “Remain Activity” value was 73.01%.
In the case of `CC1=CC(C)(C)Nc2ccc(OC(=O)c3cccs3)cc21`, the “Remain Activity” value is reported as 64.08%.
`CC1=CC(C)(C)Nc2ccc(OC(=O)c3sc4cc([N+](=O)[O-])ccc4c3Cl)cc21` was tested, and the “Remain Activity” value was 56.93%.
With `Cc1cc(=O)n2nc(N3C(=O)[C@H]4CCCC[C@H]4C3=O)nc2[nH]1` the “Remain Activity” value was 67.49%.
For `CC1=NNc2nc3c(c(=O)n(Cc4ccccc4)c(=O)n3C)n2C1`, the “Remain Activity” value was 65.08%.
In the case of `O=C(Nc1ccc2[nH]c(=S)sc2c1)c1ccccc1`, the “Remain Activity” value is reported as 65.14%.
In the case of `CC1=CC(C)(C)Nc2ccc(OC(=O)c3cccc4ccccc34)cc21`, the “Remain Activity” value is reported as 65.34%.
`CC1=CC(C)(C)Nc2ccc(OC(=O)c3ccc4c(c3)OCO4)cc21` was tested, and the “Remain Activity” value was 63.58%.
With `CC1=CC(C)(C)Nc2ccc(OC(=O)c3ccccc3Br)cc21` [drawing 433] the “Remain Activity” value was 65.33%.
For `O=C1c2cccc([N+](=O)[O-])c2C(=O)N1c1ccc2[nH]c(=S)sc2c1`, the “Remain Activity” value was 36.93%.
For `Cc1[nH]c2nc(NCc3cccc(Br)c3)nn2c(=O)c1Cl`, the “Remain Activity” value was 71.2%.
`O=C(Nc1ccc(F)cc1F)c1cc2n(n1)[C@H](C(F)(F)F)[C@H]1CCCC[C@H]1N2` was tested, and the “Remain Activity” value was 64.91%.
`CC1=CC(C)(C)Nc2ccc(OC(=O)c3ccco3)cc21` was tested, and the “Remain Activity” value was 69.67%.
In the case of `O=c1c2c([nH]c3nc(COc4ccccc4)nn13)CCC2`, the “Remain Activity” value is reported as 57.77%.
`COc1cc(OC)cc(C(=O)Oc2ccc3c(c2)C(C)=CC(C)(C)N3)c1` was tested, and the “Remain Activity” value was 59.22%.
